Measurements from paper PMC9833666, “Designing and identifying β-hairpin peptide macrocycles with antibiotic potential” (Science Advances, 2023).
Bridge positions count the residues as written; N and C are the ends. Peptide text beside a SMILES is read from it.

tested on: Acinetobacter baumannii AB5075; conditions: AB5075
Method: MICs were performed by a modifiedClinical and Laboratory Standards Institute) procedure. […] Separately, E. coli W3110 or A. baumannii AB5075 was grown overnight in 5 ml of standard MH at 37°C. Cells from these cultures were diluted to a concentration of 5 × 10^5 to 6 × 10^5 cells/ml in either standard MH, MHII, RPMI, or fetal bovine serum, and 90 μl was added to each well of the 96-well plate containing diluted peptide. Plates were wrapped twice in parafilm and incubated at 37°C for 18 to 24 hours. Wells were examined by eye against wells with no bacteria for signs of growth. MICs were reported as the minimum concentration with no observable growth. In cases where triplicate samples differed, the concentration supported by the median of the three replicates was reported. […]
For consistency, all SynCH peptides were resuspended at 10 mg/ml in water. Peptides were then visually inspected for any lack of solubility (Data File S1). […]
We had this library commercially synthesized and tested its ability to inhibit the growth of Acinetobacter baumannii AB5075, a clinically isolated Carbapenem Resistant Acinetobacter (CRA) pathogen. MICs were performed in MH as well as 100% FBS, which is likely more representative of the in vivo environment. […]

Structure (SMILES)	AB5075 MIC FBS	AB5075 MIC MH
CC(C)C[C@@H]1NC(=O)[C@H](CCCNC(=N)N)NC(=O)[C@H](C(C)C)NC(=O)[C@H](CCCCN)NC(=O)[C@H](CCCNC(=N)N)NC(=O)[C@H](CCCNC(=N)N)NC(=O)[C@H](CCCNC(=N)N)NC(=O)[C@H](CCCNC(=N)N)NC(=O)[C@H](CC(C)C)NC(=O)[C@H](CCCNC(=N)N)NC(=O)[C@H](C(C)C)NC(=O)[C@H](CCCNC(=N)N)NC(=O)[C@H](CC(C)C)NC(=O)[C@@H](N)CSSC[C@@H](C(=O)O)NC(=O)[C@H](C(C)C)NC(=O)[C@H](CCC(N)=O)NC1=O [SySA-5.19] (H-CLRVRLRRRRKVRLQVC-OH; disulfide 1-17)	> 128 µg/mL	4 µg/mL
CC(C)C[C@@H]1NC(=O)[C@H](CO)NC(=O)[C@H](C(C)C)NC(=O)[C@H](CCCCN)NC(=O)[C@H](CCCNC(=N)N)NC(=O)[C@H](CCCNC(=N)N)NC(=O)[C@H](CCCNC(=N)N)NC(=O)[C@H](CC(N)=O)NC(=O)[C@H](CC(C)C)NC(=O)[C@H](CCCNC(=N)N)NC(=O)[C@H](C(C)C)NC(=O)[C@H](CCCNC(=N)N)NC(=O)[C@H](CC(C)C)NC(=O)[C@@H](N)CSSC[C@@H](C(=O)O)NC(=O)[C@H](C(C)C)NC(=O)[C@H](CCC(N)=O)NC1=O [SySA-5.18] (H-CLRVRLNRRRKVSLQVC-OH; disulfide 1-17)	128 µg/mL	8 µg/mL
CC(C)C[C@@H]1NC(=O)[C@H](CO)NC(=O)[C@H](C(C)C)NC(=O)[C@H](CCCCN)NC(=O)[C@H](CCCNC(=N)N)NC(=O)CNC(=O)[C@H](CCCNC(=N)N)NC(=O)[C@H](CCCNC(=N)N)NC(=O)[C@H](CC(N)=O)NC(=O)[C@H](CC(C)C)NC(=O)[C@H](CCCNC(=N)N)NC(=O)[C@H](C(C)C)NC(=O)[C@H](CCCNC(=N)N)NC(=O)[C@H](CC(C)C)NC(=O)[C@@H](N)CSSC[C@@H](C(=O)O)NC(=O)[C@H](C(C)C)NC(=O)[C@H](CCC(N)=O)NC1=O [SySA-5.10] (H-CLRVRLNRRGRKVSLQVC-OH; disulfide 1-18)	128 µg/mL	4 µg/mL
CC(C)C[C@@H]1NC(=O)[C@H](CO)NC(=O)[C@H](C(C)C)NC(=O)[C@H](CCCCN)NC(=O)[C@H](CCCNC(=N)N)NC(=O)CNC(=O)[C@H](CCCNC(=N)N)NC(=O)[C@H](CCCNC(=N)N)NC(=O)[C@H](CCCNC(=N)N)NC(=O)[C@H](CC(C)C)NC(=O)[C@H](CCCNC(=N)N)NC(=O)[C@H](C(C)C)NC(=O)[C@H](CCCNC(=N)N)NC(=O)[C@@H](N)CSSC[C@@H](C(=O)O)NC(=O)[C@H](CCCNC(=N)N)NC1=O [SySA-5.24] (H-CRVRLRRRGRKVSLRC-OH; disulfide 1-16)	> 128 µg/mL	16 µg/mL
CC(C)C[C@@H]1NC(=O)[C@H](CO)NC(=O)[C@H](C(C)C)NC(=O)[C@H](CCCCN)NC(=O)[C@H](C(C)C)NC(=O)[C@H](CCCNC(=N)N)NC(=O)CNC(=O)[C@H](CCCNC(=N)N)NC(=O)[C@H](CCCNC(=N)N)NC(=O)[C@H](CC(N)=O)NC(=O)[C@H](CC(N)=O)NC(=O)[C@H](CC(C)C)NC(=O)[C@H](CCCNC(=N)N)NC(=O)[C@H](C(C)C)NC(=O)[C@H](CCCNC(=N)N)NC(=O)[C@@H](N)CSSC[C@@H](C(=O)O)NC(=O)[C@H](CCC(N)=O)NC1=O [SySA-5.5] (H-CRVRLNNRRGRVKVSLQC-OH; disulfide 1-18)	> 128 µg/mL	8 µg/mL
